Data published in PMC3556224 (Journal of natural products, 2013).

Legend:
[1] = molecular target: hAChE (Homo sapiens, UniProt P22303); assay: Inhibition of hAChE with acetylthiocholine as substrate; assay type: biochemical
[2] = molecular target: hBChE (Homo sapiens, UniProt P06276); assay: Inhibition of hBChE with butyrylthiocholine as substrate; assay type: biochemical
[3] = molecular target: T1, hiCE (Homo sapiens, UniProt O00748); assay type: cell-based; details: 4-MUA, U373MG cells
T1 sequence (O00748 27-559): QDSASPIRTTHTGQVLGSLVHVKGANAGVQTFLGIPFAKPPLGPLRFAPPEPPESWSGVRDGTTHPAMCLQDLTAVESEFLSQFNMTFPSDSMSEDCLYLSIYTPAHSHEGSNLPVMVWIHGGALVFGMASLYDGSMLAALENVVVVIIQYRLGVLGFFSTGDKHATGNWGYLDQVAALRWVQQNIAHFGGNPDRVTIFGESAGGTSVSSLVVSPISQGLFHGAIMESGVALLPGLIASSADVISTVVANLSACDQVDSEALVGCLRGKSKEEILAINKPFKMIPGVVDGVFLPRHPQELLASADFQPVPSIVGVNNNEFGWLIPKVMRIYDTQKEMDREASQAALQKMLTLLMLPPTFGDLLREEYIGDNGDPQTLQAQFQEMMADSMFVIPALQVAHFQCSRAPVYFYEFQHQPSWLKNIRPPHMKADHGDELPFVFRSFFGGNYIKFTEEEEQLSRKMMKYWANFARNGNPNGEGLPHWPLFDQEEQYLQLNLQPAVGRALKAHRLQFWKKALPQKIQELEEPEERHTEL

hBChE, sequence (P06276 29-602): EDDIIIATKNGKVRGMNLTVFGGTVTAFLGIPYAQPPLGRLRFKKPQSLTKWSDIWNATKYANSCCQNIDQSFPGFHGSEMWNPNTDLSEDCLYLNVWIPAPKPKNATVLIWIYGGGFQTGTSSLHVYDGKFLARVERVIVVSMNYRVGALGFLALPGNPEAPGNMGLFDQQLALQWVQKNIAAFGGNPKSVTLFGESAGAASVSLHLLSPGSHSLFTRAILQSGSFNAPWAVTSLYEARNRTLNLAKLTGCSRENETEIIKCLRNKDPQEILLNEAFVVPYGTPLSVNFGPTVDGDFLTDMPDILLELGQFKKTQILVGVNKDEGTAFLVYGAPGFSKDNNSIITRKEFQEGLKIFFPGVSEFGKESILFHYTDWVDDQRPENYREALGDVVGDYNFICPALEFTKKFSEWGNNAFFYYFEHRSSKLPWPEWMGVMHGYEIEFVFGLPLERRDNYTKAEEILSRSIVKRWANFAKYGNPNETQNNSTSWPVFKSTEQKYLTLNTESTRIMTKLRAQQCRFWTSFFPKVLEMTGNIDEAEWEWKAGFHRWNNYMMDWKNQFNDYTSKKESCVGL
hAChE, sequence (P22303 32-614): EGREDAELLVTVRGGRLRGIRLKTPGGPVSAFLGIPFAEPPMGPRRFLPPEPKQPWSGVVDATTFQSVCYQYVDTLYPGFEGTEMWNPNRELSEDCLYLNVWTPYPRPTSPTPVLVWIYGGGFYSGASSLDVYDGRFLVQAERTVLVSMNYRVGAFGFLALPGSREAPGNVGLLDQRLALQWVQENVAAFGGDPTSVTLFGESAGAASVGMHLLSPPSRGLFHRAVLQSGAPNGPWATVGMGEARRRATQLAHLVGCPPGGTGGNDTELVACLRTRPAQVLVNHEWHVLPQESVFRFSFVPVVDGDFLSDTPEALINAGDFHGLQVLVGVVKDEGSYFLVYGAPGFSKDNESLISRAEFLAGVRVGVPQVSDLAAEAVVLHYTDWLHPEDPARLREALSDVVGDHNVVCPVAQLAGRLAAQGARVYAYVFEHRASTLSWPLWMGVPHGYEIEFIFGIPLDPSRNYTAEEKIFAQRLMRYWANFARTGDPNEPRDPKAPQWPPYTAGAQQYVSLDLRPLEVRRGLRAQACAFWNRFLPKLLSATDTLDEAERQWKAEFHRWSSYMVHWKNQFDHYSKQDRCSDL

| Structure (SMILES) | inhibition of hAChE (in words) [1] | inhibition of hBChE (in words) [2] | Ki [2] | intracellular inhibition of hiCE (in words) [3] |
| --- | --- | --- | --- | --- |
| C[C@H]1COC2=C1C(=O)C(=O)c1c2ccc2c1CCCC2(C)C [compound 24, 1,2,6,7,8,9-hexahydro-1,6,6-trimethyl-(1R)-phenanthro [1,2-b] furan-10,11-dione] | modest activity | not BChE |  |  |
| Cc1coc2c1C(=O)C(=O)c1c-2ccc2c1CCCC2(C)C [compound 7, 1,6,6-trimethyl-6,7,8,9-tetrahydrophenanthro[1,2-b] furan-10,11-dione] | did not inhibit | did not inhibit | > 100 µM |  |
| Cc1coc2c1C(=O)C(=O)c1c-2ccc2c(C)cccc12 [compound 21, 1,6-dimethyl-phenanthro [1,2-b] furan-10,11-dione] |  |  | > 100 µM |  |
| Cc1cccc2c3c(ccc12)C1=C(C(=O)C3=O)[C@@H](C)CO1 [compound 22, 1,2-dihydro-1,6-dimethyl-(1R)-phenanthro [1,2-b] uran-10,11-dione] | modest activity | not BChE | > 100 µM |  |
| Cc1c(S(=O)(=O)[O-])oc2c1C(=O)C(=O)c1c-2ccc2c1CCCC2(C)C.[Na+] [compound 25, 6,7,8,9,10,11-hexahydro-1,6,6-trimethyl-10,11-dioxo-phenanthro[1,2-b] furan-2-sulfonic acid, sodium salt] |  |  |  | failed to inhibit |
